Laboratory results reported in ChEMBL document CHEMBL1201862, “PubChem BioAssay data set” (2004).
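Each compound was tested at five concentrations against cells in 96-well plates for 48 hours. GI50 marks 50% less growth.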 Calls of active or inactive are those of the source. Rule as the data show it: active = GI50 up to about 1.1 µM and inactive = higher.

What was measured:
Experiment in all cases: NCI tumour cell line growth inhibition, 48 h
ACHN = test system: ACHN
BT-549 = test system: BT-549
EKVX = test system: EKVX
HOP-62 = test system: HOP-62
MOLT-4 = test system: MOLT-4
NCI-H522 = test system: NCI-H522
NCI/ADR-RES = test system: NCI/ADR-RES
OVCAR-3 = test system: OVCAR-3
OVCAR-4 = test system: OVCAR-4
OVCAR-5 = test system: OVCAR-5
SF-268 = test system: SF-268
SF-295 = test system: SF-295
SF-539 = test system: SF-539
SK-MEL-28 = test system: SK-MEL-28
SK-MEL-5 = test system: SK-MEL-5
SW-620 = test system: SW-620
T47D = test system: T47D
U-251 = test system: U-251
UACC-62 = test system: UACC-62
UO-31 = test system: UO-31

SMILES: CCc1nc(N)nc(N)c1-c1ccc(Cl)cc1 [PYRIMETHAMINE]
- GI50 (ACHN): 5.11 µM (inactive)
- GI50 (BT-549): 25.8 µM (inactive)
- GI50 (EKVX): 7.55 µM (inactive)
- GI50 (HOP-62): 13.4 µM (inactive)
- GI50 (MOLT-4): 4.84 µM (inactive)
- GI50 (NCI-H522): 22.5 µM (inactive)
- GI50 (NCI/ADR-RES): 30.9 µM (inactive)
- GI50 (OVCAR-3): 32 µM (inactive)
- GI50 (OVCAR-4): 41.6 µM (inactive)
- GI50 (OVCAR-5): > 60 µM (inactive)
- GI50 (SF-268): 9.77 µM (inactive)
- GI50 (SF-295): 4.44 µM (inactive)
- GI50 (SF-539): 20.7 µM (inactive)
- GI50 (SK-MEL-28): > 66.7 µM (inactive)
- GI50 (SK-MEL-5): 2.48 µM (inactive)
- GI50 (SW-620): 5.61 µM (inactive)
- GI50 (T47D): 32.7 µM (inactive)
- GI50 (U-251): 9.75 µM (inactive)
- GI50 (UACC-62): 4.72 µM (inactive)
- GI50 (UO-31): 16.4 µM (inactive)

SMILES: CC(C)(C)OC(=O)N/N=C(/N)Cc1ccccc1
- GI50 (ACHN): > 100 µM (inactive)
- GI50 (BT-549): > 100 µM (inactive)
- GI50 (EKVX): > 100 µM (inactive)
- GI50 (HOP-62): > 100 µM (inactive)
- GI50 (MOLT-4): > 100 µM (inactive)
- GI50 (NCI-H522): > 100 µM (inactive)
- GI50 (NCI/ADR-RES): > 100 µM (inactive)
- GI50 (OVCAR-3): > 100 µM (inactive)
- GI50 (OVCAR-4): > 100 µM (inactive)
- GI50 (OVCAR-5): > 100 µM (inactive)
- GI50 (SF-268): > 100 µM (inactive)
- GI50 (SF-295): > 100 µM (inactive)
- GI50 (SF-539): > 100 µM (inactive)
- GI50 (SK-MEL-28): > 100 µM (inactive)
- GI50 (SK-MEL-5): > 100 µM (inactive)
- GI50 (SW-620): > 100 µM (inactive)
- GI50 (T47D): > 100 µM (inactive)
- GI50 (U-251): > 100 µM (inactive)
- GI50 (UACC-62): > 100 µM (inactive)
- GI50 (UO-31): > 100 µM (inactive)

SMILES: O=C1C(Cl)=C(Nc2ccc(OC(F)(F)F)cc2)C(=O)c2c(O)ccc(O)c21
- GI50 (ACHN): 1.45 µM (inactive)
- GI50 (BT-549): 0.855 µM (active)
- GI50 (EKVX): 0.877 µM (active)
- GI50 (HOP-62): 1.17 µM (inactive)
- GI50 (MOLT-4): 0.359 µM (active)
- GI50 (NCI-H522): 0.571 µM (active)
- GI50 (NCI/ADR-RES): 1.74 µM (inactive)
- GI50 (OVCAR-3): 0.505 µM (active)
- GI50 (OVCAR-4): 1.57 µM (inactive)
- GI50 (OVCAR-5): 1.76 µM (inactive)
- GI50 (SF-268): 0.594 µM (active)
- GI50 (SF-295): 1.93 µM (inactive)
- GI50 (SF-539): 1.73 µM (inactive)
- GI50 (SK-MEL-28): 0.762 µM (active)
- GI50 (SK-MEL-5): 2.11 µM (inactive)
- GI50 (SW-620): 0.891 µM (active)
- GI50 (T47D): 0.417 µM (active)
- GI50 (U-251): 0.726 µM (active)
- GI50 (UACC-62): 0.975 µM (active)
- GI50 (UO-31): 0.561 µM (active)

SMILES: CC(C)c1ccc(O)c(=O)c(O)c1.CC(C)c1ccc(O)c(=O)cc1.CC(C)c1cccc(=O)c(O)c1.CC(C)c1ccccc(=O)c1O
- GI50 (ACHN): 0.47 µM (active)
- GI50 (BT-549): 4.8 µM (inactive)
- GI50 (EKVX): 6.15 µM (inactive)
- GI50 (HOP-62): 1.24 µM (inactive)
- GI50 (MOLT-4): 0.343 µM (active)
- GI50 (NCI-H522): 0.456 µM (active)
- GI50 (NCI/ADR-RES): 0.42 µM (active)
- GI50 (OVCAR-3): 0.279 µM (active)
- GI50 (OVCAR-4): 1.11 µM (active)
- GI50 (OVCAR-5): 3.11 µM (inactive)
- GI50 (SF-268): 0.632 µM (active)
- GI50 (SF-295): 1.23 µM (inactive)
- GI50 (SF-539): 0.598 µM (active)
- GI50 (SK-MEL-28): 2.05 µM (inactive)
- GI50 (SK-MEL-5): 1.22 µM (inactive)
- GI50 (SW-620): 0.697 µM (active)
- GI50 (T47D): 1.88 µM (inactive)
- GI50 (U-251): 0.491 µM (active)
- GI50 (UACC-62): 0.787 µM (active)
- GI50 (UO-31): 0.841 µM (active)

SMILES: S=P(N1CC1)(N1CC1)N1CC1 [THIOTEPA]
- GI50 (ACHN): 14.6 µM (inactive)
- GI50 (BT-549): 175 µM (inactive)
- GI50 (EKVX): 234 µM (inactive)
- GI50 (HOP-62): 31.3 µM (inactive)
- GI50 (MOLT-4): 7.69 µM (inactive)
- GI50 (NCI-H522): 101 µM (inactive)
- GI50 (NCI/ADR-RES): 79.1 µM (inactive)
- GI50 (OVCAR-3): 169 µM (inactive)
- GI50 (OVCAR-4): 188 µM (inactive)
- GI50 (OVCAR-5): 147 µM (inactive)
- GI50 (SF-268): 39.4 µM (inactive)
- GI50 (SF-295): 33.1 µM (inactive)
- GI50 (SF-539): 37.7 µM (inactive)
- GI50 (SK-MEL-28): 186 µM (inactive)
- GI50 (SK-MEL-5): 97.9 µM (inactive)
- GI50 (SW-620): 140 µM (inactive)
- GI50 (T47D): 171 µM (inactive)
- GI50 (U-251): 58.7 µM (inactive)
- GI50 (UACC-62): 14.7 µM (inactive)
- GI50 (UO-31): 97.9 µM (inactive)

SMILES: COc1cc([C@H]2Oc3c(OC)cc(CCCO)cc3[C@@H]2CO)ccc1O [DIHYDRODEHYDRODICONIFERY ALCOHOL]
- GI50 (ACHN): > 100 µM (inactive)
- GI50 (BT-549): 94.4 µM (inactive)
- GI50 (EKVX): > 100 µM (inactive)
- GI50 (HOP-62): > 100 µM (inactive)
- GI50 (MOLT-4): 51.6 µM (inactive)
- GI50 (NCI-H522): 69.2 µM (inactive)
- GI50 (NCI/ADR-RES): > 100 µM (inactive)
- GI50 (OVCAR-3): > 100 µM (inactive)
- GI50 (OVCAR-4): 76.4 µM (inactive)
- GI50 (OVCAR-5): > 100 µM (inactive)
- GI50 (SF-268): > 100 µM (inactive)
- GI50 (SF-295): > 100 µM (inactive)
- GI50 (SF-539): > 100 µM (inactive)
- GI50 (SK-MEL-28): > 100 µM (inactive)
- GI50 (SK-MEL-5): 39 µM (inactive)
- GI50 (SW-620): > 100 µM (inactive)
- GI50 (T47D): 30.3 µM (inactive)
- GI50 (U-251): > 100 µM (inactive)
- GI50 (UACC-62): 55.3 µM (inactive)
- GI50 (UO-31): 57.8 µM (inactive)

SMILES: N/C(S)=N/N=C/c1ccc(N)cn1
- GI50 (ACHN): 1.29 µM (inactive)
- GI50 (BT-549): 3.48 µM (inactive)
- GI50 (EKVX): > 10 µM (inactive)
- GI50 (HOP-62): 5.73 µM (inactive)
- GI50 (MOLT-4): 1.95 µM (inactive)
- GI50 (NCI-H522): 3.63 µM (inactive)
- GI50 (NCI/ADR-RES): 3.08 µM (inactive)
- GI50 (OVCAR-3): 5.01 µM (inactive)
- GI50 (OVCAR-4): > 10 µM (inactive)
- GI50 (OVCAR-5): 9.06 µM (inactive)
- GI50 (SF-268): 4.29 µM (inactive)
- GI50 (SF-295): 3.52 µM (inactive)
- GI50 (SF-539): 0.404 µM (active)
- GI50 (SK-MEL-28): > 10 µM (inactive)
- GI50 (SK-MEL-5): 2.25 µM (inactive)
- GI50 (SW-620): > 10 µM (inactive)
- GI50 (T47D): 6.68 µM (inactive)
- GI50 (U-251): 4.06 µM (inactive)
- GI50 (UACC-62): 3.19 µM (inactive)
- GI50 (UO-31): 2.28 µM (inactive)
